Laboratory results taken from the NIST ThermoML archive (doi:10.1016/j.jct.2017.06.001).

Assay: xn = mol fraction of the nth substance listed
Settings: 303.15 K, 100 kPa, Liquid, Frequency=5 MHz, Pulse-echo method

OCCCCCO [1,5-pentanediol] + O
Settings	speed of sound [m/s]
x1 = 0.1172	1668.9
x1 = 0.1188	1669.4
x1 = 0.1225	1670.4
x1 = 0.1232	1670.5
x1 = 0.127	1671.5
x1 = 0.1286	1671.8
x1 = 0.1312	1672.4
x1 = 0.1344	1673
x1 = 0.135	1673.1
x1 = 0.1389	1673.8
x1 = 0.1394	1673.8
x1 = 0.1443	1674.5
x1 = 0.1445	1674.6
x1 = 0.1496	1675.2
x1 = 0.1507	1675.3
x1 = 0.1548	1675.7
x1 = 0.1571	1675.9
x1 = 0.1598	1676.1
x1 = 0.163	1676.3
x1 = 0.1658	1676.5
x1 = 0.1708	1676.7
x1 = 0.1802	1676.9
x1 = 0.1897	1677
x1 = 0.1979	1676.8
x1 = 0.2069	1676.6
x1 = 0.2148	1676.3
x1 = 0.2235	1675.9
x1 = 0.2319	1675.5
x1 = 0.2409	1674.9
x1 = 0.2504	1674.3
x1 = 0.2626	1673.4
x1 = 0.2732	1672.6
x1 = 0.2834	1671.8
x1 = 0.2953	1670.8
x1 = 0.3083	1669.6
x1 = 0.3214	1668.4
x1 = 0.3389	1666.8
x1 = 0.3516	1665.5
x1 = 0.3648	1664.2
x1 = 0.3773	1662.8
x1 = 0.3937	1661.1
x1 = 0.4071	1659.6
x1 = 0.4199	1658.1
x1 = 0.4346	1656.3
x1 = 0.447	1654.8
x1 = 0.4637	1652.8
x1 = 0.4812	1650.5
x1 = 0.4955	1648.6
x1 = 0.5124	1646.4
x1 = 0.5315	1643.8
x1 = 0.5497	1641.2
x1 = 0.5687	1638.5
x1 = 0.5883	1635.7
x1 = 0.6098	1632.7
x1 = 0.63	1629.8
x1 = 0.6445	1627.7
x1 = 0.6622	1625.2
x1 = 0.6847	1622
x1 = 0.7039	1619.3
x1 = 0.7252	1616.4
x1 = 0.7448	1613.7
x1 = 0.7674	1610.7
x1 = 0.7881	1608.1
x1 = 0.8098	1605.3
x1 = 0.8318	1602.6
x1 = 0.8478	1600.6
x1 = 0.8678	1598.2
x1 = 0.8839	1596.3
x1 = 0.9005	1594.4
x1 = 0.9185	1592.2
x1 = 0.9359	1590.2
x1 = 0.9494	1588.6
x1 = 0.9623	1587.1
x1 = 0.9723	1585.9
x1 = 0.9822	1584.7
x1 = 0.9892	1583.9
x1 = 0.9947	1583.2
x1 = 0.9972	1582.9
x1 = 1	1582.5
